One data set addresses isolated QPCTL (Homo sapiens, UniProt Q9NXS2). The settings on record: as disclosed in WO 2024/020517; read-out: Inhibitory activity on isolated QPCTL, IC50; cited from earlier work.
Data set [1] in a line: Assay C: permeability in CACO-2 cells. It counts as in vitro ADME. As to conditions: human, Caco-2, pH 7.2. Summed up:
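Caco-2 monolayers were grown 10–25 days on porous filter inserts. Compound was applied to the apical or basolateral donor side for A-B or B-A transport (3 filters), and the receiver was sampled for up to 2 h. Quantitation was by HPLC-MS/MS or scintillation; efflux ratio = B-A/A-B permeability.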
(In general: Caco-2 cells form a polarised layer with tight junctions and transporters.)

The subject of another data set is murine hepatocytes. The data set can be described thus: Assay E: stability in murine hepatocytes. The format is in vitro ADME, mouse. The settings on record: Table 13, prior art compounds, 1 μM, 5% species serum. Summed up: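 Cryopreserved mouse hepatocytes, typically 1 Mio cells/mL in medium with 5% species serum, were dosed at 1 μM compound (0.05% DMSO) at 37 °C and sampled over 0–6 h. Parent decline was measured by HPLC-MS/MS and CLint calculated from dose/AUC, then scaled by well-stirred liver model.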

The test system of data set [2] is cellular (Ramos) QPCTL activity. The settings on record: Ramos cells, as disclosed in WO 2024/020517; read-out: Inhibitory activity of cellular (Ramos) QPCTL activity in a FACS assay; cited from earlier work. (In general: Flow cytometry measures light scatter and fluorescence of single cells or particles in a stream.)
Data set [3] concerns SIRPα signalling induced by A549 cells. Nature of the data set: Assay B: SIRPα signalling assay using A549 cells. The format is cell-based. As to conditions: Homo sapiens, Table 5, prior art compounds, read-out: Inhibition of SIRPα signalling induced by A549 cells: IC50. Summed up: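 Raji or A549 cells (5000/well) were each incubated with serially diluted compound for 48 h at 37 °C. Jurkat PathHunter SIRPαV1 reporter cells (15000/well) were then added for 5 h. Beta-galactosidase luminescence gave IC50 via a 4-parameter sigmoidal fit.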

The next data set concerns CYP3A4 mRNA. Nature of the data set: Assay D: CYP induction screening assay in primary human hepatocytes. It counts as in vitro ADME. The settings on record: Table 10, prior art compounds, 48 h. In a few lines: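 Single-donor cryopreserved human hepatocytes on collagen with Matrigel overlay were exposed to test compound at […] (0.1% DMSO) for 48 h, medium renewed at 24 h. CYP3A4 mRNA quantified by QuantiGene Plex/Luminex, normalised to geometric mean of RPL32, EIF4E2, GUSB and expressed relative to solvent control.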

The values that follow come from patent US20250250251A1, “PIPERIDINYLPYRIDINYLCARBONITRILE DERIVATIVES AS INHIBITORS OF GLUTAMINYL-PEPTIDE CYCLOTRANSFERASE AND GLUTAMINYL-PEPTIDE CYCLOTRANSFERASE LIKE PROTEIN” (Boehringer Ingelheim International GmbH, priority 2024, published 2025).

isolated QPCTL, sequence (Q9NXS2 whole entry): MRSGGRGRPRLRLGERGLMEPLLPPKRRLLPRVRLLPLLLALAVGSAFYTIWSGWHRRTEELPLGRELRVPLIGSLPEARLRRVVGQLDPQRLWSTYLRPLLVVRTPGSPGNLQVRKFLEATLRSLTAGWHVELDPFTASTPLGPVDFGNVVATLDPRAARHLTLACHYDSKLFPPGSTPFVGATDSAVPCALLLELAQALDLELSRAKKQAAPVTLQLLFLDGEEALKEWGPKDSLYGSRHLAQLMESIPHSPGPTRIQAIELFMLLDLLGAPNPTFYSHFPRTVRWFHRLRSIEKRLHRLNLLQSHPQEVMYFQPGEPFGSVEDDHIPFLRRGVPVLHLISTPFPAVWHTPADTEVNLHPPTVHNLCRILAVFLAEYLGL

As to `Cn1cnnc1C1CCN(c2c(-c3ccnnc3)ccc(Cl)c2C#N)CC1` [Compound 33, reference compound], the IC50 on isolated QPCTL is less than 0.1 µM; in data set [2] it was less than 0.1 µM; in data set [3], 0.056 µM. Further, the Papp A→B – broadly, how fast a substance crosses the layer from the apical side – in data set [1] came out at 0.2 ×10⁻⁶ cm/s. For the same compound, the efflux ratio in data set [1] (read-out: Efflux Ratio) turned out to be 45.3. Moreover, the “Mouse Hepatocyte Stability QH” value in the data set on murine hepatocytes came to 45%. Moreover, in the data set with CYP3A4 mRNA, the “n-fold induction of CYP3A4 at 10 μM” value amounted to 1.7 n-fold.
